The text below walks through data of patent EP0170024A2, “Use of 2-acylaminomethyl-1,4-benzodiazepine derivatives for the production of pharmaceutical compositions and process for the preparation for pharmaceutical compositions” (priority 1984, dated 1986).

Experiment [1] concerns the target T1, CCK receptor (pancreas) (Rattus norvegicus, UniProt P30551).
T1 construct: The whole pancreas of a male Sprague-Dawley rat (200-350 g), which had been sacrificed by decapitation, was dissected free of fat tissue and homogenized; from tissue; host or cells: rat pancreas membrane homogenate
T1 sequence (P30551 1-444): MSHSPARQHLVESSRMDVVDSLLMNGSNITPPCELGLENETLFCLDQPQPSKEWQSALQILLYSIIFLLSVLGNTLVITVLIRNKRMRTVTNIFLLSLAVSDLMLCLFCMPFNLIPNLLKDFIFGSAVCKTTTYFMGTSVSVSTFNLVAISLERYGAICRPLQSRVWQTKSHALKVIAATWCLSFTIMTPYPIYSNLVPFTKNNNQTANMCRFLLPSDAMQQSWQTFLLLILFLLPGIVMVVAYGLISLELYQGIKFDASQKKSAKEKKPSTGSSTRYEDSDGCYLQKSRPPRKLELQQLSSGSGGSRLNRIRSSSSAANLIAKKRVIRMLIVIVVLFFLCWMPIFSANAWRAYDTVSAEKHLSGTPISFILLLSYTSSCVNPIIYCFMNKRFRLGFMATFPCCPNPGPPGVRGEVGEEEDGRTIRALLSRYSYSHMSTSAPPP
Briefly: CCK receptor binding (pancreas), 125I-CCK-33 receptor binding assay. To be noted: for IC50: inhibition of 50% of the 125I-CCK binding, rat pancreas membranes, 37°C, 30 minutes. The source says: Screening of these known compounds to determine biological activity and obtain an IC50 value for them to identify significant CCK-antagonism may be accomplished using an 125I-CCK receptor binding assay and in vitro isolated tissue preparations. These tests involve the following: • CCK receptor binding (pancreas) method
CCK-33 was radiolabeled with ^125I-Bolton Hunter reagent (2000 Ci/mmole), as described by Sankara et al. (J. Biol. Chem., 254, 9349-9351, 1979).
The whole pancreas of a male Sprague-Dawley rat (200-350 g), which had been sacrificed by decapitation, was dissected free of fat tissue and homogenized in 20 volumes of ice-cold 50 mM Tris HC1 (pH 7.7 at 25°C) with a Brinkmann Polytron PT-10. The homogenates were centrifuged at 48,000g for 10 minutes, then the resulting pellets were resuspended in Tris Buffer, centrifuged as above, and resuspended in 200 volumes of binding assay buffer (50 mM Tris HC1, pH 7.7 at 25°C, 5 mM dithiothreitol, 0.1 mM bacitracin, 1.2 mM phenylmethane sulfonyl fluoride and 0.5 mM o-phenanthroline).
All assays were run in duplicate or triplicate, and the reaction mixtures were incubated at 37°C for 30 minutes and centrifuged in a Beckman Microfuge (4 minutes) immediately after adding 1 ml of ice-cold incubation buffer. The supernatant was aspirated and discarded, and the pellets were counted with a Beckman gamma 5000.

For experiment [2], the system named is CCK-8 response in guinea pig gall bladder. The experiment can be described thus: Isolated guinea pig gall bladder, CCK-8 contractile response. The conditions noted are these: compound at 2 uM, added at least 5 minutes before CCK-8. How it is done: Isolated guinea pig gall bladder method
The two halves of the gall bladders, free of adjacent tissue, of male Hartley guinea pigs (400-600 q), which had been sacrificed by ? were suspended under 1 g tension along the axis of the bile duct in 5 ml organ bath, containing a Kreb's bicarbonate solution of 118 mM NaCl, 4.75 mM KC1, 2.54 CaCl2, 1.19 mM KH2PO4, 1.2 mM MgS04, 25 mM NaHC03 and 11 mM dextrose, which is maintained at 32°C and bubbled with a mixture of 95% 02 and 5% C02. The tissues were washed every 10 minutes for 1 hour to obtain equilibrium prior to the beginning of the study and the isometric contractions of the strips were recorded using Statham (60 g:0.12 mm) strain gauges and a Hewlett-Packard 77588 recorder.
CCK-8 was added cumulatively to the baths and the EC50's were determined using regression analysis. After washout (every 10 minutes-for 1 hour), the compound to be tested was added at least 5 minutes before the addition of CCK-8 and the EC50 of CCK-8 in the presence of the compound to be tested was also simillarly determined.

Setting [3] is: read-out: IC50 (µM) CCK Pancreas.

Molecules are shown by their SMILES. Where two headings read alike, the source gives them in different places.

Broadly, the IC50 is the concentration that inhibits the measured activity by half. For `CN1c2ccccc2C(c2ccccc2F)=NCC1CNC(=O)c1ccccc1F` (stereo not drawn) [Compound 4, l-methyl-2-(2-fluorophenyl-carbonyl)aminomethyl-5-(2'-fluorophenyl)-lH-2,3-dihydro-1,4-benzodiazepine], the IC50 in experiment [1] (setting [3]) worked out at 2.9 µM.

Turning to `CN1c2ccccc2C(c2ccccc2F)=NCC1CNC(=O)c1ccc(Cl)cc1` (stereo not drawn) [Compound 3, l-methyl-2-(4'-chlorophenylcarbonyl) aminomethyl-5-(2'-fluorophenyl)-3H-2,3-dihydro-1,4-benzodiazepine], the IC50 in experiment [1] (setting [3]) turned out to be 0.8 µM.

Regarding `CN1c2ccccc2C(c2ccccc2F)=NCC1CNC(=O)c1ccsc1` (single isomer, unassigned; (-)) [Compound 1, (-)-1-methyl-2-(thiophene-3-carbonyl)aminomethyl-5-(2'-fluorophenyl)-1H-2,3-dihydro-1,4-benzodiazepine], the half-maximal inhibitory concentration (IC50) in experiment [1] (IC50 (µM) CCK Pancreas) amounted to 0.1 µM.

With `CN1c2ccccc2C(c2ccccc2F)=NCC1CN1C(=O)c2ccccc2C1=O` (stereo not drawn) [Compound 5, [(1-methyl-5-(2'-fluorophenyl)-lH-l,4-benzopin-2-yl)methyl]-lH-isoindole-1,3-(2H)-dione], the IC50 in experiment [1] (setting [3]) stood at 4.3 µM.

As for `CN1c2ccccc2C(c2ccccc2F)=NCC1CNC(=O)c1cccnc1` (stereo not drawn) [Compound 7, 1-methyl-2-(pyridine-3-carbonyl)aminomethyl-5-(2'-fluorophenyl)-1H-2,3-dihydro-1,4-benzodiazepine], the 50% inhibitory concentration (IC50) in experiment [1] (setting [3]) turned out to be 10 µM.

As for `CN1c2ccccc2C(c2ccccc2F)=NCC1CNC(=O)c1ccsc1` (single isomer, unassigned; (+)) [Compound 6, (+)-1-methyl-2-(thiophene-3-carbonyl)aminomethyl-5-(2-fluorophenyl)-lH-2,3-dihydro-1,4-benzodiazepine], in experiment [1] (IC50 (µM) CCK Pancreas), the IC50 is 13.9 µM.

`CN1c2ccccc2C(c2ccccc2F)=NCC1CNC(=O)c1ccsc1` (racemic) [Compound 2, (±)-1-methyl-2-(thiophene-3-carbonyl) aminomethyl-5-(2'-fluorophenyl)-2,3-dihydro-l,4-benzodiazepine]: in experiment [2], the “effect on CCK dose response curve” value was “parallel shift to the right of the CCK dose response curve without reduction of the maximal contractile response”. The same compound registered an IC50 in experiment [1] (IC50 (µM) CCK Pancreas) of 0.2 µM. In addition, the “mechanism of inhibition of specific 125I-CCK-33 receptor binding (Scatchard analysis)” value in experiment [1] (absence and presence of 0.2 µM of compound, increased the KD without affecting the Bmax) is “competitively inhibited specific ^125I-CCK-33 receptor binding”.
